Experimental data published in US7943318B2, “Microrna-based methods and compositions for the diagnosis, prognosis and treatment of lung cancer” (The Ohio State University Research Foundation, priority 2006, dated 2011).

Key:
[1] = test system: miRNA expression in A549 and NCI-H157 lung cancer cells; assay: miRNA microarray after treatment with 5-aza-dC and/or TSA; format: cell-based, human; conditions: 1.0 μM, triplicate
Experimental: Microarray analysis was performed as previously described (Liu, C. G., et al., Proc. Natl. Acad. Sci. U.S.A. 101:9740-9744 (2004)). Briefly, 5 μg of total RNA was hybridized with miRNA microarray chips containing 352 probes in triplicate. Specifically, these chips contain gene-specific 40-mer oligonucleotide probes, spotted by contacting technologies and covalently attached to a polymeric matrix, which were generated from 161 human miRNAs, 84 mouse miRNAs, miRNAs from three other species and tRNA. The microarrays were hybridized in 6×SSPE (0.9 M NaCl/60 mM NaH2PO4.H2O/8 mM EDTA, pH 7.4)/30% formamide at 25° C. for 18 hr, washed in 0.75×TNT (Tris.HCl/NaCl/Tween 20) at 37° C. for 40 min, and processed using a method of direct detection of biotin-containing transcripts by streptavidin-Alexa647 conjugate (Molecular Probes, Carlsbad, Calif.). Processed slides were scanned using a PerkinElmer ScanArray XL5K Scanner, with the laser set to 635 nm, at Power 80 and PMT 70 setting, and a scan resolution of 10 μm. An average value of the three spot replicates for each miRNA was normalized and analyzed in BRB-ArrayTools version 3.2.3. After excluding negative values with hybridization intensity below background, normalization was performed by using a per chip on median normalization method and normalization to median array as reference. […]

[2] = test system: MYO18B mRNA in lung cancer cell lines (H157, A549); assay: MYO18B mRNA expression after treatment with 5-aza-dC and/or TSA, RT-PCR analysis; format: cell-based, human; conditions: 1.0 μM, FIG. 12
Experimental: FIG. 12 depicts the expression of MYO18B mRNA after treatment with 5-aza-dC and/or TSA in two lung cancer cell lines (H157, A549), as determined by RT-PCR analysis. Lane 1, no treatment; lane 2, treatment with 1.0 μM 5-aza-dC for 72 hr; lane 3, treatment with 1.0 μM TSA for 24 hr; lane 4, treatment with 1.0 μM 5-aza-dC for 72 hours, followed by treatment with 1.0 μM TSA for 24 hr. GAPDH expression served as a loading control.
A549 and NCI-H157 lung cancer cells (available from the American Tissue Culture Collection) were incubated with medium containing 1.0 μM 5-aza-dC (Sigma, St. Louis, Mo.) for 48 hr, then were incubated for an additional 24 hr in the presence of 1.0 μM TSA (Sigma, St. Louis, Mo.). Total RNA was isolated with TRIzol® Reagent (Invitrogen), and microarray analysis was performed as described above. Each treatment was performed in triplicate.
miRNA microarrays were used to analyze the expression of various miRNAs upon treatment with 5-aza-2′-deoxycytidine (5-aza-dC), a DNA methylation inhibitor, and/or Trichostatin A (TSA), a potent histone deacteylase inhibitor, in two lung cancer cell lines (A549 and NCI-H157).

| SMILES | changes in miRNA expression on microarray after treatment [1] | expression of MYO18B (transcriptionally-silenced gene) following treatment [2] |
| --- | --- | --- |
| Nc1ncn([C@H]2C[C@H](O)[C@@H](CO)O2)c(=O)n1 [5-aza-dC, 5-aza-2′-deoxycytidine] | no miRNAs from the microarray displayed statistically-significant changes in expression | increased expression |
| CC(/C=C/C(=O)NO)=C\[C@@H](C)C(=O)c1ccc(N(C)C)cc1 [TSA, Trichostatin A] | no miRNAs from the microarray displayed statistically-significant changes in expression | increased expression |
